Measured values taken from ChEMBL document CHEMBL3046832, “Synthesis of some sulfonamides, disubstituted sulfonylureas or thioureas and some structurally related variants. A class of promising antitumor agents” (2007).

Tests used:
Assay type in all cases: functional
T47D = experiment: Cytotoxicity against Homo sapiens (human) T47D cells after 48 hr by SRB assay
MCF7 [1] = experiment: Cytotoxicity against Homo sapiens (human) MCF7 cells after 48 hr by SRB assay; details: MCF7, 48 h
RPMI-8226 = experiment: Cytotoxicity against Homo sapiens (human) RPMI8226 cells after 48 hr by SRB assay; details: RPMI-8226, 48 h
IGROV-1 = experiment: Cytotoxicity against Homo sapiens (human) IGROV1 cells after 48 hr by SRB assay; details: IGROV-1, 48 h
RXF 393 = experiment: Cytotoxicity against Homo sapiens (human) RXF393 cells after 48 hr by SRB assay; details: RXF 393, 48 h
Hs-578T = experiment: Cytotoxicity against Homo sapiens (human) Hs578T cells after 48 hr by SRB assay
[2] = Cytotoxicity against Homo sapiens (human) renal cancer cells after 48 hr by SRB assay; details: Cancer cell lines
OVCAR-3 = experiment: Cytotoxicity against Homo sapiens (human) OVCAR3 cells after 48 hr by SRB assay; details: OVCAR-3, 48 h
UO-31 = experiment: Cytotoxicity against Homo sapiens (human) UO31 cells after 48 hr by SRB assay; details: UO-31, 48 h
HOP-92 = experiment: Cytotoxicity against Homo sapiens (human) HOP92 cells after 48 hr by SRB assay; details: HOP-92, 48 h
M14 = experiment: Cytotoxicity against Homo sapiens (human) M14 cells after 48 hr by SRB assay; details: M14, 48 h
KM12 = experiment: Cytotoxicity against Homo sapiens (human) KM12 cells after 48 hr by SRB assay; details: KM12, 48 h
CAKI-1 = experiment: Cytotoxicity against Homo sapiens (human) Caki1 cells after 48 hr by SRB assay; details: CAKI-1, 48 h
EKVX = experiment: Cytotoxicity against Homo sapiens (human) EKVX cells after 48 hr by SRB assay
HCT-15 = experiment: Cytotoxicity against Homo sapiens (human) HCT15 cells after 48 hr by SRB assay; details: HCT-15, 48 h
U-251 = experiment: Cytotoxicity against Homo sapiens (human) U251 cells after 48 hr by SRB assay; details: U-251, 48 h
SW-620 = experiment: Cytotoxicity against Homo sapiens (human) SW620 cells after 48 hr by SRB assay; details: SW-620, 48 h
UACC-62 = experiment: Cytotoxicity against Homo sapiens (human) UACC62 cells after 48 hr by SRB assay; details: UACC-62, 48 h
[3] = Cytotoxicity against Homo sapiens (human) CNS cancer cells after 48 hr by SRB assay; details: Cancer cell lines
NCI-H522 = experiment: Cytotoxicity against Homo sapiens (human) NCI-H522 cells after 48 hr by SRB assay; details: NCI-H522, 48 h
[4] = Cytotoxicity against Homo sapiens (human) leukemia cells after 48 hr by SRB assay; details: Leukemia cell
MCF7 [5] = experiment: Cytotoxicity against Homo sapiens (human) MCF7 cells assessed as cellular growth after 48 hr by Alamar blue assay; design: concentration or dose not given beside the values
SK-OV-3 = experiment: Cytotoxicity against Homo sapiens (human) SKOV3 cells after 48 hr by SRB assay; details: SK-OV-3, 48 h
OVCAR-5 = experiment: Cytotoxicity against Homo sapiens (human) OVCAR5 cells after 48 hr by SRB assay; details: OVCAR-5, 48 h
SN12C = experiment: Cytotoxicity against Homo sapiens (human) SN12C cells after 48 hr by SRB assay
SF-268 = experiment: Cytotoxicity against Homo sapiens (human) SF268 cells assessed as cellular growth after 48 hr by Alamar blue assay; design: concentration or dose not given beside the values
[6] = Cytotoxicity against Homo sapiens (human) colon cancer cells after 48 hr by SRB assay; details: Cancer cell lines
MOLT-4 = experiment: Cytotoxicity against Homo sapiens (human) MOLT4 cells after 48 hr by SRB assay; details: MOLT-4, 48 h
PC-3 = experiment: Cytotoxicity against Homo sapiens (human) PC3 cells after 48 hr by SRB assay; details: PC-3, 48 h
MDA-MB-231 = experiment: Cytotoxicity against Homo sapiens (human) MDA-MB-231 cells after 48 hr by SRB assay; details: MDA-MB-231, 48 h
MDA-MB-435 = experiment: Cytotoxicity against Homo sapiens (human) MDA-MB-435 cells after 48 hr by SRB assay; details: MDA-MB-435, 48 h
OVCAR-4 = experiment: Cytotoxicity against Homo sapiens (human) OVCAR4 cells after 48 hr by SRB assay; details: OVCAR-4, 48 h
[7] = Cytotoxicity against Homo sapiens (human) NCI-H322 cells after 48 hr by SRB assay; details: NCI-H322, 48 h
SF-295 = experiment: Cytotoxicity against Homo sapiens (human) SF295 cells after 48 hr by SRB assay; details: SF-295, 48 h
NCI-H460 = experiment: Cytotoxicity against Homo sapiens (human) NCI-H460 cells assessed as cellular growth after 48 hr by Alamar blue assay; design: concentration or dose not given beside the values
[8] = Cytotoxicity against Homo sapiens (human) melanoma cells after 48 hr by SRB assay; details: Melanoma cell
[9] = Cytotoxicity against Homo sapiens (human) ovarian cancer cells after 48 hr by SRB assay; details: Cancer cell lines
SK-MEL-5 = experiment: Cytotoxicity against Homo sapiens (human) SK-MEL-5 cells after 48 hr by SRB assay; details: SK-MEL-5, 48 h
COLO 205 = experiment: Cytotoxicity against Homo sapiens (human) COLO205 cells after 48 hr by SRB assay; details: COLO 205, 48 h
[10] = Cytotoxicity against Homo sapiens (human) NCI-ADR-RES cells after 48 hr by SRB assay
[11] = Cytotoxicity against Homo sapiens (human) breast cancer cells after 48 hr by SRB assay; details: Cancer cell lines
A549 = experiment: Cytotoxicity against Homo sapiens (human) A549 cells after 48 hr by SRB assay; details: A549, 48 h
SNB-19 = experiment: Cytotoxicity against Homo sapiens (human) SNB19 cells after 48 hr by SRB assay; details: SNB-19, 48 h
786-0 = experiment: Cytotoxicity against Homo sapiens (human) 786-0 cells after 48 hr by SRB assay; details: 786-0, 48 h
BT-549 = experiment: Cytotoxicity against Homo sapiens (human) BT549 cells after 48 hr by SRB assay; details: BT-549, 48 h
HOP-62 = experiment: Cytotoxicity against Homo sapiens (human) HOP62 cells after 48 hr by SRB assay; details: HOP-62, 48 h
NCI-H23 = experiment: Cytotoxicity against Homo sapiens (human) NCI-H23 cells after 48 hr by SRB assay; details: NCI-H23, 48 h

In the case of `O=C(NC(=S)NS(=O)(=O)c1ccc(N2N=C3c4ccccc4CC3C2c2cccs2)cc1)c1ccccc1` (stereo not given), the GI50 (T47D) is reported as 69.6 µM, the GI50 (MCF7 [1]) is reported as > 100 µM and the GI50 (RPMI-8226) is reported as 29.7 µM. For the same molecule, the GI50 (IGROV-1) was 3.14 µM, the GI50 (RXF 393) was 54 µM and the GI50 (Hs-578T) was 16.1 µM. For the same molecule, the GI50 [2] was 45.8 µM, the TGI [2] was 87.2 µM and the GI50 (OVCAR-3) was 30.6 µM. For the same molecule, the GI50 (UO-31) was 41.1 µM, the GI50 (HOP-92) was 53 µM and the GI50 (M14) was 21.2 µM. The GI50 (KM12) was 28.2 µM, the GI50 (CAKI-1) was 26.1 µM and the GI50 (EKVX) was 19.6 µM. The GI50 (HCT-15) was 30.2 µM, the GI50 (U-251) was 20.1 µM and the GI50 (SW-620) was 34.8 µM. It also gave a GI50 (UACC-62) of 14.6 µM, a GI50 [3] of 53.3 µM and a TGI [3] of 90.9 µM. For the same molecule, the GI50 (NCI-H522) was 20.5 µM, the GI50 [4] was 27.9 µM and the TGI [4] was 77.2 µM. The Activity (MCF7 [5]) was “<=32%”, the GI50 (SK-OV-3) was 90.8 µM and the GI50 (OVCAR-5) was 18.7 µM. The GI50 (SN12C) was 26 µM, the Activity (SF-268) was “<=32%” and the GI50 [6] was 35.5 µM. The TGI [6] was 85.6 µM, the GI50 (MOLT-4) was 26.2 µM and the GI50 (PC-3) was 29.7 µM. For the same molecule, the GI50 (MDA-MB-231) was 22.5 µM, the GI50 (MDA-MB-435) was 21.7 µM and the GI50 (OVCAR-4) was 87.6 µM. For the same molecule, the GI50 [7] was 14.2 µM, the GI50 (SF-295) was 25.4 µM and the Activity (NCI-H460) was “<=32%”. The GI50 [8] was 34.1 µM, the TGI [8] was 67.7 µM and the GI50 [9] was 41.9 µM. The TGI [9] was 95.3 µM, the GI50 (SK-MEL-5) was 16.9 µM and the GI50 (COLO 205) was 38.4 µM. The GI50 [10] was 18.8 µM, the GI50 [11] was 38.6 µM and the TGI [11] was 83.7 µM. It also gave a GI50 (A549) of 20.3 µM, a GI50 (SNB-19) of 46.3 µM and a GI50 (786-0) of 27.9 µM. It also gave a GI50 (BT-549) of 21.6 µM.
For `O=S(=O)(/N=c1\scc(-c2ccccc2)n1-c1ccccc1)c1ccc(N2N=C3c4ccccc4CC3C2c2cccs2)cc1` (stereo not given), the GI50 (T47D) was > 100 µM, the GI50 (HOP-62) was 73.2 µM and the GI50 (MCF7 [1]) was 29.1 µM. For the same molecule, the GI50 (RPMI-8226) was 51 µM, the GI50 (RXF 393) was 98.2 µM and the GI50 (Hs-578T) was 60.6 µM. The GI50 [2] was 72.1 µM, the TGI [2] was 96.5 µM and the GI50 (OVCAR-3) was > 100 µM. For the same molecule, the GI50 (UO-31) was > 100 µM, the GI50 (HOP-92) was > 100 µM and the GI50 (M14) was 81.5 µM. It also gave a GI50 (KM12) of 32.1 µM, a GI50 (CAKI-1) of 73 µM and a GI50 (EKVX) of 35.5 µM. The GI50 (HCT-15) was 67.4 µM, the GI50 (U-251) was 31.2 µM and the GI50 (SW-620) was 94.2 µM. The GI50 (UACC-62) was 60.3 µM, the GI50 [3] was 80.9 µM and the TGI [3] was > 100 µM. The GI50 (NCI-H522) was 61.9 µM, the GI50 [4] was 55 µM and the TGI [4] was 90.9 µM. The Activity (MCF7 [5]) was “<=32%”, the GI50 (SK-OV-3) was > 100 µM and the GI50 (OVCAR-5) was 88.9 µM. For the same molecule, the GI50 (SN12C) was 94.3 µM, the Activity (SF-268) was “<=32%” and the GI50 [6] was 68.1 µM. The TGI [6] was 96.9 µM, the GI50 (MOLT-4) was 19 µM and the GI50 (PC-3) was 75 µM. The GI50 (MDA-MB-231) was 52.1 µM, the GI50 (MDA-MB-435) was 38.7 µM and the GI50 (OVCAR-4) was > 100 µM. For the same molecule, the GI50 [7] was 31.4 µM, the GI50 (SF-295) was 54.5 µM and the Activity (NCI-H460) was “<=32%”. For the same molecule, the GI50 [8] was 74.6 µM, the TGI [8] was > 100 µM and the GI50 [9] was 87.2 µM. For the same molecule, the TGI [9] was > 100 µM, the GI50 (SK-MEL-5) was 48 µM and the GI50 (COLO 205) was > 100 µM. For the same molecule, the GI50 [10] was > 100 µM, the GI50 (NCI-H23) was 68 µM and the GI50 [11] was 61.1 µM. The TGI [11] was > 100 µM, the GI50 (A549) was 57 µM and the GI50 (SNB-19) was > 100 µM. It also gave a GI50 (786-0) of 64.2 µM and a GI50 (BT-549) of 47.5 µM.
